According to US20090042951A1, “Blood Pressure Reduction in Salt-Sensitive Hypertension” (priority 2004, published 2009):

Key:
[1] = tested on: Dahl salt-sensitive (SS/Jr) rats; test: Telemetric arterial blood pressure monitoring in Dahl salt-sensitive rats on high salt diet; type: in vivo, rat; conditions: for anti-hypertensive activity: found by the methods described herein
Procedure: (§1) Male Dahl salt-resistant (SR/Jr) rats (250-300 gm, Harlan, Indianapolis, Ind.) were used as controls. Non-salt-sensitive, spontaneously hypertensive rats (SHR) were also employed in some experiments. Each rat was housed individually with a 12 hour light/12 hour dark cycle. The animal use protocols were approved by the Chicago—West Side Veterans Administration Institutional Animal Care and Use Committee.
(§2) Arterial blood pressures in unrestrained rats were monitored using a model TA11PA-C20 (Data Science, International, St. Paul, Minn.) implantable telemetric blood pressure monitoring system. The rats were anesthetized using an intraperitoneal injection (50 mg/kg i.p.) of nembutol sodium solution prior to implantation of the monitor. The radio-transmitter catheter was inserted via a midline abdominal incision into the left femoral artery and sutured in place after the tip of the catheter was advanced into the proximal aorta. The catheter was tunneled under the skin and the body of the transmitter was positioned in a subcutaneous pocket near the right flank of the rat. Data acquisition began after normal diurnal blood pressure variability had been reestablished, typically about seven days after surgery. Continuous measurements of pulsatile central aortic blood pressure were recorded by a receiver placed under each rat's cage.
A baseline arterial blood pressure was established for each rat from continuous measurements made over a two day period prior to the start of an experiment. […] Monitoring continued for four additional days. […] The p-value in both cases is less than 0.05.

[2] = tested on: spontaneously hypertensive rats (SHR); test: Telemetric arterial blood pressure monitoring in spontaneously hypertensive rats on 8% NaCl diet; type: in vivo, rat; conditions: single IP injection 10 mg/kg, continuous telemetric recording
Procedure: as §1
as §2, with “cage. […]” for “cage.”

[3] = tested on: dogs; conditions: administration of rolipram, increased cAMP; cited from earlier work

SMILES | duration of drop in blood pressure ([1]; Dahl SS/Jr rat, 8% NaCl diet, single IP injection 10 mg/kg) [days] | effect on arterial blood pressure ([1]; Dahl SS/Jr rat, 8% NaCl diet, single IP injection 10 mg/kg, continuous telemetric recording) | anti-hypertensive activity [1] | effect on arterial blood pressure [2] | renal vascular resistance [3] | secretion of electrolytes [3]
COc1ccc(C2CNC(=O)C2)cc1OC1CCCC1 (stereo not drawn) [rolipram, Rolipram] | > 2 | very significant and prolonged (>2 days) drop in blood pressure | exhibit anti-hypertensive activity | brief, shallow dip in blood pressure immediately after rolipram injection followed by a gradual decline and recovery of blood pressure | reduces renal vascular resistance | promotes secretion of electrolytes
CCn1c(=O)c2ccccc2n(-c2cccc([N+](=O)[O-])c2)c1=O [TVX2706] | – | – | exhibit anti-hypertensive activity | – | – | –
COc1ccc(C(=O)Nc2c(Cl)cncc2Cl)cc1OC1CCCC1 [RP73401] | – | – | exhibit anti-hypertensive activity | – | – | –
O=c1c2cccnc2n(-c2cccc([N+](=O)[O-])c2)c(=O)n1Cc1ccncc1 [RS25344] | – | – | exhibit anti-hypertensive activity | – | – | –
